Experimental data published in patent publication US8865734B2 (priority 2010, dated 2014).
≈ marks a conversion by molar mass, not a printed value. Like-named read-outs stand apart in the source and are kept apart here.

Key:
[1] = test system: in vitro grown Mycobacteria (M. tuberculosis); experiment: QUM: Quantification of in vitro grown Mycobacteria (in vitro growth fluorescence assay); type: cell-based; conditions: Mycobacterium tuberculosis
Text: (§1) A 120,000 small molecule compound library was screened using a validated phenotypic cell-based assay (WO2010003533A2). Active compounds from the primary screen were confirmed via dose response in the intracellular (QIM) assay and an in vitro (QUM) assay, wherein the abbreviation “QIM” stands for Quantification of Intracellular Mycobacteria and the abbreviation “QUM” stands for Quantification of in vitro grown Mycobacteria. […] The MIC is the minimum concentration of compound required to obtain 80% bacterial growth inhibition.
(§2) The imidazopyridine compounds (scaffolds Ia and Ib; see Table 1) underwent derivatization according to the methods outlined below (Schemes 1-13). Resulting derivatives were examined for inhibitory activity (MIC) using the assays described above (Example 1) and the results are summarized in Table 1.

[2] = test system: M. tuberculosis inside the host macrophage; experiment: QIM: Quantification of Intracellular Mycobacteria (intracellular growth assay, phenotypic cell-based); conditions: Mycobacterium tuberculosis
Text: Accordingly, a phenotypic cell-based assay, suitable for high throughput screening, which allows for the search of compounds that would prevent M. tuberculosis multiplication inside the host macrophage was utilized (WO2010003533A2), overcoming many of the numerous and burdensome steps involved in previous methodologies (Arain et al., 1996).
as §1, §2

[3] = MIC, 80% bacterial growth inhibition, in vitro growth, read-out: QUM
[4] = MIC, 80% bacterial growth inhibition, intracellular growth, read-out: QIM

## CCc1nc2cc(Cl)ccn2c1-c1nnc(CN2CCN(c3ccc(OC(F)(F)F)cc3)CC2)o1 [Compound 244, 2-(7-Chloro-2-ethylimidazo[1,2-a]pyridin-3-yl)-5-((4-(4-(trifluoromethoxy)phenyl)piperazin-1-yl)methyl)-1,3,4-oxadiazole]
[1]; [3]
  MIC: 1 to 20 µM (≈ 0.507 to 10.1 µg/mL)
[2]; [4]
  MIC: 1 to 20 µM (≈ 0.507 to 10.1 µg/mL)

## COc1cccn2c(C(=O)NCc3ccccc3)c(C)nc12 [Compound 41, N-Benzyl-8-methoxy-2-methylimidazo[1,2-a]pyridine-3-carboxamide]
[1]; [3]
  MIC: > 20 µM
[2]; [4]
  MIC: > 20 µM

## CCc1nc2cc([N+](=O)[O-])ccn2c1C(=O)NCc1ccc(N2CCC(Oc3ccc(OC(F)(F)F)cc3)CC2)cc1 [Compound 170, 2-Ethyl-7-nitro-N-(4-(4-(4-(trifluoromethoxy)phenoxy)piperidin-1-yl)benzyl) imidazo[1,2-a]pyridine-3-carboxamide]
[1]; [3]
  MIC: 1 to 20 µM (≈ 0.584 to 11.7 µg/mL)
[2]; [4]
  MIC: 1 to 20 µM (≈ 0.584 to 11.7 µg/mL)

## CCc1nc2cc(Cl)ccn2c1C(=O)NCc1ccc(-c2ccc(C(C)(C)C)cc2)cc1 [Compound 117, N-((4′-tert-Butylbiphenyl-4-yl)methyl)-7-chloro-2-ethylimidazo[1,2-a]pyridine-3-carboxamide]
[1]; [3]
  MIC: < 1 µM
[2]; [4]
  MIC: < 1 µM

## CCc1nc2cc([N+](=O)[O-])ccn2c1C(=O)NCc1ccc(OC(F)(F)F)cc1 [Compound 150, 2-Ethyl-7-nitro-N-(4-(trifluoromethoxy)benzyl)imidazo[1,2-a]pyridine-3-carboxamide]
[1]; [3]
  MIC: > 20 µM
[2]; [4]
  MIC: > 20 µM

## Cc1nc2ccccn2c1C(=O)Nc1ccncc1 [Compound 5, 2-Methyl-N-(pyridin-4-yl)imidazo[1,2-a]pyridine-3-carboxamide]
[1]; [3]
  MIC: > 20 µM
[2]; [4]
  MIC: > 20 µM

## CCc1nc2cc(Cl)ccn2c1C(=O)NCc1ccc(O)cc1 [Compound 88, 7-Chloro-2-ethyl-N-(4-hydroxybenzyl)imidazo[1,2-a]pyridine-3-carboxamide]
[1]; [3]
  MIC: 1 to 20 µM (≈ 0.33 to 6.6 µg/mL)
[2]; [4]
  MIC: 1 to 20 µM (≈ 0.33 to 6.6 µg/mL)

## Cc1nc2ccccn2c1C(=O)NCc1ccc(Oc2ccccc2)cc1 [Compound 15, 2-Methyl-N-(4-phenoxybenzyl)imidazo[1,2-a]pyridine-3-carboxamide]
[1]; [3]
  MIC: 1 to 20 µM (≈ 0.357 to 7.15 µg/mL)
[2]; [4]
  MIC: < 1 µM

## CCc1nc2cc(Cl)ccn2c1C(=O)NCc1ccc(N2CCC(=O)CC2)cc1 [Compound 269, 7-Chloro-2-ethyl-N-(4-(4-oxopiperidin-1-yl)benzyl)imidazo[1,2-a]pyridine-3-carboxamide]
[1]; [3]
  MIC: < 1 µM
[2]; [4]
  MIC: 1 to 20 µM (≈ 0.411 to 8.22 µg/mL)

## Cc1nc2c(C(F)(F)F)cccn2c1C(=O)NCc1ccccc1 [Compound 40, N-Benzyl-2-methyl-8-(trifluoromethyl)imidazo[1,2-a]pyridine-3-carboxamide]
[1]; [3]
  MIC: > 20 µM
[2]; [4]
  MIC: > 20 µM

## CCc1nc2cc(Cl)ccn2c1C(=O)NCc1ccc(-c2ccc(Cl)cc2C(F)(F)F)cc1 [Compound 130, 7-Chloro-N-((4′-chloro-2′-(trifluoromethyl)biphenyl-4-yl)methyl)-2-ethylimidazo[1,2-a]pyridine-3-carboxamide]
[1]; [3]
  MIC: 1 to 20 µM (≈ 0.492 to 9.85 µg/mL)
[2]; [4]
  MIC: < 1 µM

## CCc1nc2cc(Cl)ccn2c1C(=O)NCc1ccc(N2CCC(Oc3ccc(Cl)cc3)CC2)cc1 [Compound 163, 7-Chloro-N-(4-(4-(4-chlorophenoxy)piperidin-1-yl)benzyl)-2-ethylimidazo[1,2-a]pyridine-3-carboxamide]
[1]; [3]
  MIC: < 1 µM
[2]; [4]
  MIC: < 1 µM

## CCCCCC(=O)NCc1ccc(-c2ccc(CNC(=O)c3c(CC)nc4cc(Cl)ccn34)cc2)cc1 [Compound 184, 7-Chloro-2-ethyl-N-((4′-(hexanamidomethyl)biphenyl-4-yl)methyl)imidazo[1,2-a]pyridine-3-carboxamide]
[1]; [3]
  MIC: < 1 µM
[2]; [4]
  MIC: < 1 µM

## Cc1nc2cc(-c3ccccc3)ccn2c1C(=O)O [Compound 3, 2-Methyl-7-phenylimidazo[1,2-a]pyridine-3-carboxylic acid]
[1]; [3]
  MIC: > 20 µM
[2]; [4]
  MIC: > 20 µM

## CCc1nc2cc(Cl)ccn2c1C(=O)NCc1ccc(-c2cccc(C)c2)cc1 [Compound 97, 7-Chloro-2-ethyl-N-((3′-methylbiphenyl-4-yl)methyl)imidazo[1,2-a]pyridine-3-carboxamide]
[1]; [3]
  MIC: < 1 µM
[2]; [4]
  MIC: < 1 µM

## CCc1nc2cc(OC)ccn2c1C(=O)NCc1ccc(OC(F)(F)F)cc1 [Compound 104, 2-Ethyl-7-methoxy-N-(4-(trifluoromethoxy)benzyl)imidazo[1,2-a]pyridine-3-carboxamide]
[1]; [3]
  MIC: > 20 µM
[2]; [4]
  MIC: 1 to 20 µM (≈ 0.393 to 7.87 µg/mL)

## CCc1nc2ccc(Cl)cn2c1C(=O)NCC1CCCc2c1cnn2-c1ccc(F)cc1 (centres unmarked) [Compound 238, 6-Chloro-2-ethyl-N-((1-(4-fluorophenyl)-4,5,6,7-tetrahydro-1H-indazol-4-yl)methyl) imidazo[1,2-a]pyridine-3-carboxamide]
[1]; [3]
  MIC: > 20 µM
[2]; [4]
  MIC: > 20 µM

## CCc1nc2ccc(Cl)cn2c1C(=O)NCc1ccc(OCC(C)C)cc1 [Compound 76]
[1]; [3]
  MIC: < 1 µM
[2]; [4]
  MIC: < 1 µM

## Cc1nc2ccccn2c1C(=O)NCc1cccnc1 [Compound 13, 2-Methyl-N-(pyridin-3-ylmethyl)imidazo[1,2-a]pyridine-3-carboxamide]
[1]; [3]
  MIC: > 20 µM
[2]; [4]
  MIC: > 20 µM

## CCc1nc2ccc(Cl)cn2c1C(=O)NCc1ccc(N2CCC(Oc3ccc(OC(F)(F)F)cc3)CC2)cc1 [Compound 139, 6-Chloro-2-ethyl-N-(4-(4-(4-(trifluoromethoxy)phenoxy)piperidin-1-yl)benzyl)imidazo-[1,2-a]pyridine-3-carboxamide]
[1]; [3]
  MIC: < 1 µM
[2]; [4]
  MIC: < 1 µM

## Cc1nc2cc(Cl)ccn2c1C(=O)NCc1ccc(-c2ccccc2)cc1 [Compound 45]
[1]; [3]
  MIC: < 1 µM
[2]; [4]
  MIC: < 1 µM

## CCc1nc2ccccn2c1C(=O)NCc1ccc(N(C)Cc2ccc(OC(F)(F)F)cc2)cc1 [Compound 263, 2-Ethyl-N-(4-(methyl(4-(trifluoromethoxy)benzyl)amino)benzyl)imidazo[1,2-a]pyridine-3-carboxamide]
[1]; [3]
  MIC: < 1 µM
[2]; [4]
  MIC: < 1 µM

## O=C(NCc1ccccc1)c1c(C2CC2)nc2ccccn12 [Compound 50, N-Benzyl-2-cyclopropylimidazo[1,2-a]pyridine-3-carboxamide]
[1]; [3]
  MIC: 1 to 20 µM (≈ 0.291 to 5.83 µg/mL)
[2]; [4]
  MIC: 1 to 20 µM (≈ 0.291 to 5.83 µg/mL)

## Cc1nc2ccc(C#N)cn2c1C(=O)NCc1ccccc1 [Compound 36, N-Benzyl-6-cyano-2-methylimidazo[1,2-a]pyridine-3-carboxamide]
[1]; [3]
  MIC: > 20 µM
[2]; [4]
  MIC: > 20 µM

## CCc1nc2ccc(Cl)cn2c1C(=O)NCc1ccc(N2CCCCC2)cc1 [Compound 79, 6-Chloro-2-ethyl-N-(4-(piperidin-1-yl)benzyl)imidazo[1,2-a]pyridine-3-carboxamide]
[1]; [3]
  MIC: < 1 µM
[2]; [4]
  MIC: < 1 µM

## Cc1nc2ccccn2c1C(=O)NCc1ccc(C(=O)O)cc1 [Compound 11, 4-((2-Methylimidazo[1,2-a]pyridine-3-carboxamido)methyl)benzoic acid]
[1]; [3]
  MIC: > 20 µM
[2]; [4]
  MIC: > 20 µM

## CCc1nc2ccc(Br)cn2c1C(=O)NCc1ccc(Oc2ccc(F)cc2)cc1 [Compound 189, 6-Bromo-2-ethyl-N-(4-(4-fluorophenoxy)benzyl)imidazo[1,2-a]pyridine-3-carboxamide]
[1]; [3]
  MIC: < 1 µM
[2]; [4]
  MIC: < 1 µM

## CCc1nc2ccc(Cl)cn2c1C(=O)NCc1ccc(OC(F)(F)F)cc1 [Compound 72]
[1]; [3]
  MIC: < 1 µM
[2]; [4]
  MIC: < 1 µM

## Cc1nc2ccccn2c1NC(=O)Cc1ccccc1 [Compound 26, N-(2-Methylimidazo[1,2-a]pyridin-3-yl)-2-phenylacetamide]
[1]; [3]
  MIC: > 20 µM
[2]; [4]
  MIC: > 20 µM

## Cc1nc2cccc(C)n2c1C(=O)NCc1ccccc1 [Compound 33, N-Benzyl-2,5-dimethylimidazo[1,2-a]pyridine-3-carboxamide]
[1]; [3]
  MIC: > 20 µM
[2]; [4]
  MIC: > 20 µM

## CCc1nc2cc(Cl)ccn2c1C(=O)NCc1ccc(-c2ccc(C)cc2)cc1 [Compound 98, 7-Chloro-2-ethyl-N-((4′-methylbiphenyl-4-yl)methyl)imidazo[1,2-a]pyridine-3-carboxamide]
[1]; [3]
  MIC: < 1 µM
[2]; [4]
  MIC: < 1 µM

## CCc1nc2cc(Cl)ccn2c1C(=O)NCc1ccc(-c2ccc(F)cc2Cl)cc1 [Compound 133, 7-Chloro-N-((2′-chloro-4′-fluorobiphenyl-4-yl)methyl)-2-ethylimidazo[1,2-a]pyridine-3-carboxamide]
[1]; [3]
  MIC: < 1 µM
[2]; [4]
  MIC: < 1 µM

## CCc1nc2ccccn2c1C(=O)NCc1ccc(OC(F)(F)F)cc1 [Compound 57, 2-Ethyl-N-(4-(trifluoromethoxy)benzyl)imidazo[1,2-a]pyridine-3-carboxamide]
[1]; [3]
  MIC: < 1 µM
[2]; [4]
  MIC: < 1 µM

## CCc1nc2cc(Cl)ccn2c1C(=O)NCc1ccc(-c2ccccc2C)cc1 [Compound 96, 7-Chloro-2-ethyl-N-((2′-methylbiphenyl-4-yl)methyl)imidazo[1,2-a]pyridine-3-carboxamide]
[1]; [3]
  MIC: < 1 µM
[2]; [4]
  MIC: < 1 µM

## O=C(NCc1ccc(-c2ccccc2)cc1)c1c(C(F)(F)F)nc2ccc(Cl)cn12 [Compound 99, N-(Biphenyl-4-ylmethyl)-6-chloro-2-(trifluoromethyl)imidazo[1,2-a]pyridine-3-carboxamide]
[1]; [3]
  MIC: < 1 µM
[2]; [4]
  MIC: < 1 µM

## Cc1nc2ccccn2c1C(=O)NCc1ccccc1 [Compound 8, N-Benzyl-2-methylimidazo[1,2-a]pyridine-3-carboxamide]
[1]; read-out: QUM (μM)
  MIC: > 20 µM
[1]; dose response confirmation, 80% bacterial growth inhibition, read-out: minimum inhibitory concentration (MIC), QUM assay
  MIC: 5 µM (≈ 1.33 µg/mL)
[2]; read-out: QIM (μM)
  MIC: 1 to 20 µM (≈ 0.265 to 5.31 µg/mL)
[2]; dose response confirmation, 80% bacterial growth inhibition, read-out: minimum inhibitory concentration (MIC), QIM assay
  MIC: 2.5 µM (≈ 0.663 µg/mL)
